The values below come from patent US10570129B2 (Zoetis Services LLC, priority 2015, dated 2020).

One assay has as its system Haemonchus contortus L3. In words: microbe, parasite or virus in culture. It counts as cell-based. Conditions: Haemonchus contortus, 96 h, read-out: HcL3 Minimal Effective Concentration (MEC).
Another assay concerns D. immitis microfilariae. In words: Dirofilaria immitis, microfilariae (DiMF) in vitro motility assay. The following applies: Dirofilaria immitis, 72 h, read-out: DiMF minimally effective dose (MEC). It counts as cell-based.

SMILES strings stand for the structures.

Take `COc1cc(CNC(=O)n2c3c(c4cc(C#N)ccc42)CN(C/C=C/c2ccc(F)c(Cl)c2)CC3)ccn1` [Example 68, (E)-2-(3-(3-chloro-4-fluorophenyl)allyl)-8-cyano-N-((2-methoxypyridin-4-yl)methyl)-1,2,3,4-tetrahydro-5H-pyrido[4,3-b]indole-5-carboxamide]: the minimal effective concentration with Haemonchus contortus L3 came to 0.01 µM; in the assay on D. immitis microfilariae, 0.03 µM.
For `O=C(NCc1ccnc(Cl)c1)n1c2c(c3cccc(Cl)c31)CN(C/C=C/c1ccc(C(F)(F)F)cn1)CC2` [Example 266, (E)-6-chloro-N-((2-chloropyridin-4-yl)methyl)-2-(3-(5-(trifluoromethyl)-pyridin-2-yl)allyl)-1,2,3,4-tetrahydro-5H-pyrido[4,3-b]indole-5-carboxamide], the minimal effective concentration is over 100 µM in the assay on Haemonchus contortus L3 and 18.2 µM in the assay with D. immitis microfilariae.
For `O=C(NCc1ccnc(Cl)c1)n1c2c(c3cc4c(cc31)COC4)CN(C/C=C/c1ccc(Cl)cc1)CC2` [Example 480, (E)-8-(3-(4-chlorophenyl)allyl)-N-((2-chloropyridin-4-yl)methyl)-1,3,6,7,8,9-hexahydro-5H-furo[3,4-f]pyrido[4,3-b]indole-5-carboxamide], the minimal effective concentration in the assay with Haemonchus contortus L3 is 0.3 µM; in the assay with D. immitis microfilariae it was 3.3 µM.
For the molecule `O=C(NCc1ccnc(Cl)c1)n1c2c(c3cc(Cl)ccc31)CN(C/C=C/c1ccc(C(F)(F)F)cc1)CC2` [Example 246, (E)-8-chloro-N-((2-chloropyridin-4-yl)methyl)-2-(3-(4-(trifluoromethyl)-phenyl)allyl)-1,2,3,4-tetrahydro-5H-pyrido[4,3-b]indole-5-carboxamide], the minimal effective concentration in the assay on Haemonchus contortus L3 was 3.3 µM; in the assay on D. immitis microfilariae it was 10 µM.
For `N#Cc1ccc2c(c1)c1c(n2C(=O)NCc2ccnc(F)c2)CCN(C/C=C/c2cc(F)c(F)c(F)c2)C1` [Example 116, (E)-8-cyano-N-((2-fluoropyridin-4-yl)methyl)-2-(3-(3,4,5-trifluorophenyl)allyl)-1,2,3,4-tetrahydro-5H-pyrido[4,3-b]indole-5-carboxamide], the minimal effective concentration worked out at 0.1 µM in the assay with Haemonchus contortus L3 and 1.3 µM in the assay with D. immitis microfilariae.
For the molecule `O=C(NCc1ccnc(Cl)c1)n1c2c(c3cc(Br)ccc31)CN(C/C=C/c1ccc(Cl)c(Cl)c1)CC2` [Example 186, (E)-8-bromo-N-((2-chloropyridin-4-yl)methyl)-2-(3-(3,4-dichlorophenyl)allyl)-1,2,3,4-tetrahydro-5H-pyrido[4,3-b]indole-5-carboxamide], the minimal effective concentration in the assay on Haemonchus contortus L3 was 1 µM; in the assay with D. immitis microfilariae it was over 100 µM.
Turning to `O=C(NCc1cnc(Cl)s1)n1c2c(c3c(Cl)c(Cl)ccc31)CN(C/C=C/c1ccc(Cl)cc1)CC2` [Example 295, (E)-8,9-dichloro-2-(3-(4-chlorophenyl)allyl)-N-((2-chlorothiazol-5-yl)methyl)-1,2,3,4-tetrahydro-5H-pyrido[4,3-b]indole-5-carboxamide], the minimal effective concentration with Haemonchus contortus L3 was over 100 µM; with D. immitis microfilariae, 18.2 µM.
Turning to `O=C(NCc1ccnc(Cl)c1)n1c2c(c3cc(Br)c(F)cc31)CN(C/C=C/c1ccc(Cl)cc1)CC2` [Example 197, (E)-8-bromo-2-(3-(4-chlorophenyl)allyl)-N-((2-chloropyridin-4-yl)methyl)-7-fluoro-1,2,3,4-tetrahydro-5H-pyrido[4,3-b]indole-5-carboxamide], the minimal effective concentration in the assay on Haemonchus contortus L3 was determined as 0.4 µM; in the assay on D. immitis microfilariae it was 4.4 µM.
As for `N#Cc1ccc2c(c1)c1c(n2C(=O)NCc2ccnc(F)c2)CCN(C/C=C/c2ccncc2)C1` [Example 124, (E)-8-cyano-N-((2-fluoropyridin-4-yl)methyl)-2-(3-(pyridin-4-yl)allyl)-1,2,3,4-tetrahydro-5H-pyrido[4,3-b]indole-5-carboxamide], the minimal effective concentration came out at 100 µM in the assay with Haemonchus contortus L3 and 33 µM with D. immitis microfilariae.
`COc1cc2c3c(n(C(=O)NCc4ccnc(Cl)c4)c2cc1C(F)(F)F)CCN(C/C=C/c1ccc(Cl)cc1)C3` [Example 329, (E)-2-(3-(4-chlorophenyl)allyl)-N-((2-chloropyridin-4-yl)methyl)-8-methoxy-7-(trifluoromethyl)-1,2,3,4-tetrahydro-5H-pyrido[4,3-b]indole-5-carboxamide]: the minimal effective concentration in the assay on Haemonchus contortus L3 is 0.3 µM; with D. immitis microfilariae it was 1.8 µM.
Take `O=C(NCc1ccnc(F)c1)n1c2c(c3ccc(OC(F)(F)F)cc31)CN(C/C=C/c1ccc(Cl)cc1Cl)CC2` [Example 370, (E)-2-(3-(2,4-dichlorophenyl)allyl)-N-((2-fluoropyridin-4-yl)methyl)-7-(trifluoromethoxy)-1,2,3,4-tetrahydro-5H-pyrido[4,3-b]indole-5-carboxamide]: the values for the minimal effective concentration with Haemonchus contortus L3 and with D. immitis microfilariae were 3.3 µM and 33 µM, respectively.
Taken in the same sequence, the figures for `O=C(NCc1ccnc(F)c1)n1c2c(c3cc(Cl)c(Cl)cc31)CN(C/C=C/c1ccc(Cl)cc1)CC2` [Example 292, (E)-7,8-dichloro-2-(3-(4-chlorophenyl)allyl)-N-((2-fluoropyridin-4-yl)methyl)-1,2,3,4-tetrahydro-5H-pyrido[4,3-b]indole-5-carboxamide] were 3.3 µM and 5.7 µM.
Consider `N#Cc1ccc(-c2ccc3c(c2)c2c(n3C(=O)NCc3ccnc(F)c3)CCN(C/C=C/c3ccc(Cl)cc3)C2)cn1` [Example 460, (E)-2-(3-(4-chlorophenyl)allyl)-8-(6-cyanopyridin-3-yl)-N-((2-fluoropyridin-4-yl)methyl)-1,2,3,4-tetrahydro-5H-pyrido[4,3-b]indole-5-carboxamide], for which the results for the minimal effective concentration in the assay on Haemonchus contortus L3 and with D. immitis microfilariae were over 100 µM and 57.4 µM, respectively.
As to `O=C(NCc1ccnc(Cl)c1)n1c2c(c3ccc(Cl)cc31)CN(C/C=C/c1ccc(F)c(Cl)c1)CC2` [Example 210, (E)-7-chloro-2-(3-(3-chloro-4-fluorophenyl)allyl)-N-((2-chloropyridin-4-yl)methyl)-1,2,3,4-tetrahydro-5H-pyrido[4,3-b]indole-5-carboxamide], the figures for the minimal effective concentration in the assay on Haemonchus contortus L3 and in the assay with D. immitis microfilariae were 3.3 µM and 10 µM, respectively.
For the molecule `COc1cc(CNC(=O)n2c3c(c4ccc(C#N)cc42)CN(C/C=C/c2ccc(Cl)c(F)c2)CC3)ccn1` [Example 59, (E)-2-(3-(4-chloro-3-fluorophenyl)allyl)-7-cyano-N-((2-methoxypyridin-4-yl)methyl)-1,2,3,4-tetrahydro-5H-pyrido[4,3-b]indole-5-carboxamide], the minimal effective concentration with Haemonchus contortus L3 was 7.7 µM; in the assay with D. immitis microfilariae, 10 µM.
For `N#Cc1ccc2c3c(n(C(=O)NCc4ccnc(Cl)c4)c2c1)CCN(C/C=C/c1ccc(F)cc1Cl)C3` [Example 24, (E)-2-(3-(2-chloro-4-fluorophenyl)allyl)-N-((2-chloropyridin-4-yl)methyl)-7-cyano-1,2,3,4-tetrahydro-5H-pyrido[4,3-b]indole-5-carboxamide], the minimal effective concentration with Haemonchus contortus L3 was found to be 5.7 µM; in the assay with D. immitis microfilariae, 7.6 µM.
On the same counts, the results for `O=C(NCc1ccnc(Cl)c1)n1c2c(c3cc(OC(F)(F)F)c(Cl)cc31)CN(C/C=C/c1ccc(Cl)cc1)CC2` [Example 496, (E)-7-chloro-2-(3-(4-chlorophenyl)allyl)-N-((2-chloropyridin-4-yl)methyl)-8-(trifluoromethoxy)-1,2,3,4-tetrahydro-5H-pyrido[4,3-b]indole-5-carboxamide] are 1 µM and 5.7 µM.
On to `O=C(NCc1ccnc(Cl)c1)n1c2c(c3cc(Cl)c(Cl)cc31)CN(C/C=C/c1ccc(Cl)c(Cl)c1)CC2` [Example 281, (E)-7,8-dichloro-N-((2-chloropyridin-4-yl)methyl)-2-(3-(3,4-dichlorophenyl)allyl)-1,2,3,4-tetrahydro-5H-pyrido[4,3-b]indole-5-carboxamide], for which the minimal effective concentration with Haemonchus contortus L3 is 1 µM; with D. immitis microfilariae, over 100 µM.
For `Cc1ccc2c(c1)c1c(n2C(=O)NCc2ccnc(Cl)c2)CCN(C/C=C/c2ccc(Cl)cc2)C1` [Example 431, (E)-2-(3-(4-chlorophenyl)allyl)-N-((2-chloropyridin-4-yl)methyl)-8-methyl-1,2,3,4-tetrahydro-5H-pyrido[4,3-b]indole-5-carboxamide], the figures for the minimal effective concentration in the assay with Haemonchus contortus L3 and in the assay on D. immitis microfilariae were 1 µM and 3.3 µM, respectively.
As for `CSc1ccc2c(c1)c1c(n2C(=O)NCc2ccnc(Cl)c2)CCN(C/C=C/c2ccc(Cl)cc2)C1` [Example 447, (E)-2-(3-(4-chlorophenyl)allyl)-N-((2-chloropyridin-4-yl)methyl)-8-(methylthio)-1,2,3,4-tetrahydro-5H-pyrido[4,3-b]indole-5-carboxamide], the minimal effective concentration with Haemonchus contortus L3 was 0.5 µM; with D. immitis microfilariae it was 3.3 µM.
In the case of `N#Cc1ccc2c3c(n(C(=O)NCc4ccnc(F)c4)c2c1)CCN(C/C=C/c1cc(F)c(Cl)c(F)c1)C3` [Example 50, (E)-2-(3-(4-chloro-3,5-difluorophenyl)allyl)-7-cyano-N-((2-fluoropyridin-4-yl)methyl)-1,2,3,4-tetrahydro-5H-pyrido[4,3-b]indole-5-carboxamide], the minimal effective concentration worked out at 1.8 µM in the assay with Haemonchus contortus L3 and 10 µM in the assay on D. immitis microfilariae.
Turning to `O=C(NCc1ccnc(Cl)c1)n1c2c(c3cc(OC(F)(F)F)ccc31)CN(C/C=C/c1ccc(OC(F)(F)F)cc1)CC2` [Example 395, (E)-N-((2-chloropyridin-4-yl)methyl)-8-(trifluoromethoxy)-2-(3-(4-(trifluoro-methoxy)phenyl)allyl)-1,2,3,4-tetrahydro-5H-pyrido[4,3-b]indole-5-carboxamide], the minimal effective concentration in the assay on Haemonchus contortus L3 amounted to 3.3 µM; in the assay with D. immitis microfilariae it was 22.2 µM.
In the case of `N#Cc1ccc(/C=C/CN2CCc3c(c4cc(Cl)c(Cl)cc4n3C(=O)NCc3ccnc(Cl)c3)C2)cc1F` [Example 275, (E)-7,8-dichloro-N-((2-chloropyridin-4-yl)methyl)-2-(3-(4-cyano-3-fluorophenyl)allyl)-1,2,3,4-tetrahydro-5H-pyrido[4,3-b]indole-5-carboxamide], the minimal effective concentration is 0.3 µM in the assay with Haemonchus contortus L3 and over 100 µM with D. immitis microfilariae.
